Data reported in US6391840B1, “Multiple component bleaching compositions” (Unilever Home & Personal Care USA, division of Conopco, Inc., priority 1999, dated 2002).

Legend:
[1] = Stability tests of imine quat in the presence of hydrogen peroxide at various pH (1H NMR integral ratio; permanganate titration); assay type: physicochemical
Description: The stability of N-methyl-3,4 dihydroisoquinolinium tosylate in the presence of hydrogen peroxide was tested at various pH values. To this end samples were prepared containing 6.0% w/w hydrogen peroxide, 2.0% w/w of the imine quat and 0.01% w/w Dequest™ 2047 (ethylenediamine-tetra[methylene-phosphonic acid] sodium salt, a sequestrant marketed by Monsanto). This is equivalent to a partial composition which together with a second partial composition of the same volume would lead to a final composition with 3% hydrogen peroxide and 1% imine quat.
The pH of the samples was adjusted using 1.0M hydrochloric acid or 2.0M sodium hydroxide as required. During the test the pH of the samples was re-adjusted as indicated using 2.0M sodium hydroxide.
The hydrogen peroxide content was determined by titration against 0.02 M potassium permanganate. […] Complete reaction of 1 equivalent of hydrogen peroxide with 1 equivalent of imine quat would result in a decrease in hydrogen peroxide concentration of 0.2% w/w.
Imine quat stability was monitored using ^1H NMR spectroscopy, by comparing the ratio of the integrals of the iminium proton which appears at 8.85 ppm relative to TMS, with those for the aromatic protons on the inert tosylate counter-ion, which are observed at 7.65 ppm. Loss of imine quat (e.g. through reaction with hydrogen peroxide) is observed as a decrease in the iminium:tosylate integral ratio, and % of imine quat remaining is calculated as integral ratio after storage÷initial integral ratio.

[2] = test system: black mould (Cladosporium cladosporoides), autoclaved mould paste; assay: Bleaching of autoclaved black mould paste on porous ceramic tiles, expert panel score 0-6
Description: Hydrogen peroxide solutions with and without imine quat (N-methyl-3,4-dihydroisoquinolinium tosylate) and at various pH values were tested on their ability to bleach black mould in comparison with sodium hypochlorite, which is the standard product used to clean black mould stains. The hydrogen peroxide solutions were all freshly prepared just before testing so as to mimic compositions obtained by mixing appropriate partial compositions on dispensing. In order to obtain reproducible results an autoclaved mould paste was used for the testing.
Cultures of hyphal Cladosporium cladosporoides were prepared on agar jelly. Warm water was used to dissolve the jelly and separate it from the mould hyphae, which were then autoclaved. […]
Small circular pieces of single ply tissue paper were cut to a convenient size and placed on the surface of the ‘mould tile’ test pieces, such that the edges of the test pieces remain uncovered. A fixed quantity of the test solution was allowed to drop onto the surface of the tissue and allowed to soak into the tile. […]
Test pieces were assessed for the level of mould bleaching by an expert panel, using a integer scale running from 0 (no decolorisation) to 6 (complete bleaching). Panel test data for each system was collated and analysed statistically to provide mean scores for each test system. […]

[3] = Bleaching of tea stained cotton cloth (reflectance); conditions: pH 10.0 or higher, vs 1% sodium hypochlorite pH 12
Description: Tea stained cotton (BC-1) cloth is routinely used in the assessment of laundry bleaches. Here the method was adapted as an easy and readily reproducible indicator of the activity of the composition against a common hydrophilic household soil in comparison with a standard hypochlorite bleach.
Lengths of pre-stained BC-1 cotton cloth was cut into square swatches (2 cm×2 cm). For each composition four replicate cloths were placed in the bottom of a clean glass beaker and covered with the cleaning composition at room temperature. After the required contact time (generally 2 or 5 minutes) had elapsed, the cloths were removed from the cleaning solution using tweezers and immediately immersed in distilled water. The cloths were stirred in the water, and the washing procedure repeated twice more using fresh water each time. Washed cloths were then pressed between two filters to remove excess water and placed on fresh filter papers, in the dark, to dry.
Reflectance measurements were carried out on a Spectraflash 400 instrument. ΔR measurements were calculated using ‘40ptspec’ software, using a portion of untreated cloth from the same BC-1 cloth batch as a standard. Results obtained from each of the four replicate test cloths were then statistically analysed to obtain mean ΔR values for each bleach system.

[4] = Stability tests of imine quat in the presence of hydrogen peroxide at various pH (1H NMR integral ratio; permanganate titration); assay type: physicochemical; conditions: pH 8, without hydrogen peroxide, 2% imine quat, three days after preparation
[5] = target pH 5.5, 0 days storage, sample 6.0% H2O2 + 2.0% imine quat
[6] = target pH 5.5, 148 days storage
[7] = target pH 6.0, 148 days storage
[8] = target pH 6.5, 148 days storage
[9] = target pH 7.0, 148 days storage
[10] = target pH 7.5, 148 days storage

C[N+]1=Cc2ccccc2CC1.Cc1ccc(S(=O)(=O)[O-])cc1 [Imine Quat, N-methyl-3,4-dihydroisoquinolinium tosylate]
% of the original amount of imine quat still detectable ([1]; pH 8, in the presence of 6% hydrogen peroxide, 4 hours after preparation): 5%
imine quat detectable ([1]; pH 8, in the presence of 6% hydrogen peroxide, one day after preparation): no imine quat was detectable
% Imine Quat remaining [1, 5]: 100%
% Imine Quat remaining [1, 6]: 93%
% Imine Quat remaining ([1]; target pH 6.0, 0 days storage): 100%
% Imine Quat remaining [1, 7]: 83%
% Imine Quat remaining ([1]; target pH 6.5, 0 days storage): 100%
% Imine Quat remaining [1, 8]: 67%
% Imine Quat remaining ([1]; target pH 7.0, 0 days storage): 100%
% Imine Quat remaining [1, 9]: 43%
% Imine Quat remaining ([1]; target pH 7.5, 0 days storage): 100%
% Imine Quat remaining [1, 10]: 33%
effect of adding Imine Quat on mould bleaching over hydrogen peroxide ([2]; pH 10.5 and 11.0): significant improvement in performance
effect of adding Imine Quat on tea stain bleaching [3]: boosts the performance of hydrogen peroxide to values very close to those observed using hypochlorite
% of the original amount of imine quat remaining [4]: 5%

OO [hydrogen peroxide, reference compound]
% hydrogen peroxide [1, 5]: 6.00%
% hydrogen peroxide [1, 6]: 5.99%
% hydrogen peroxide ([1]; target pH 6.0, 0 days storage): 6.00%
% hydrogen peroxide [1, 7]: 5.95%
% hydrogen peroxide ([1]; target pH 6.5, 0 days storage): 6.00%
% hydrogen peroxide [1, 8]: 5.89%
% hydrogen peroxide ([1]; target pH 7.0, 0 days storage): 6.00%
% hydrogen peroxide [1, 9]: 5.84%
% hydrogen peroxide ([1]; target pH 7.5, 0 days storage): 6.00%
% hydrogen peroxide [1, 10]: 5.69%
mould bleaching performance ([2]; pH 5.5): ineffective
